For 89 compounds, logP results are on record in the OPERA property sets (Mansouri et al. 2018).

One may read the logP as a log measure of how a compound divides between an organic and an aqueous phase. Read a low logP as a more hydrophilic compound. Take `Nc1nc(N)nc(-c2cc(Cl)ccc2Cl)n1`: the lipophilicity (logP) was 1.97.
`CSc1nc2nc(SC)[nH]c(Cl)c-2n1` came in with a lipophilicity (logP) of 0.63.
`OC(C1CO1)C(O)C1CO1` (centres undefined) returned a logP of -1.29.
Consider `COc1cc(C)ccc1N=C1NCCN1`, for which the logP came out at 1.64.
Take `CN(C)/N=N/c1ccccc1C(=O)NN`: the logP worked out at 1.28.
The same measure for `O=C1CN=C(c2ccccc2F)c2cc([N+](=O)[O-])ccc2N1`: 2.15.
`CNc1nnc(C(C)C)c(=O)n1N`: the logP stood at 0.3.
The compound `CC1(C)SC2C(NC(=O)Cc3ccc(Cl)cc3Cl)C(=O)N2C1C(=O)O` (centres undefined) displayed a logP of 3.3.
The compound `CCCNc1c([N+](=O)[O-])cc(C(F)(F)F)cc1[N+](=O)[O-]` had a logP of 3.65.
`CNC(=O)ON=C(C)C(C)(C)[N+](=O)[O-]` yielded a logP of 0.66.
For the compound `COC(=O)C(C#N)=NNc1cc(Cl)c(Cl)c(Cl)c1`, the logP was found to be 5.22.
For `O=C1O[C@@H](O)c2ccccc21`, the logP worked out at 0.57.
In the case of `CNP(=O)(OC)SC` (centres undefined), the log partition coefficient (logP) is -0.07.
`CN(C(=O)COc1ccccc1)c1ccccc1` had a logP of 2.25.
With `Clc1ncnc2sccc12`, the logP came out at 1.79.
The same measure for `COc1ccc(Cc2cnc(N)nc2N)cc1`: 1.34; for `Cn1ncc2c([N+](=O)[O-])cc([N+](=O)[O-])cc21`: 1.63; for `N#Cc1c(N)sc2ccccc12`: 2.17.
Under `CN(C)CNC(=O)c1ccccc1` stands 0.63.
Under `CC(=O)Oc1ccc(C=CNC=O)cc1` stands 1.32; under `CON(C)C(=O)Nc1ccc(OCCc2ccccc2)cc1`, 4.5.
`CCCOc1cccc(O)c1` returned a lipophilicity (logP) of 2.59.
For the compound `CCOc1ccc(OC(C)=O)cc1`, the logP was found to be 1.95.
Turning to `CCN(CC)CCNC(=O)c1cc(F)cc(Cl)c1OC`, the lipophilicity (logP) was found to be 3.18.
Under `Oc1ccc(C(c2ccc(O)cc2)c2ccccn2)cc1` stands 2.84; under `O=[N+]([O-])c1cccc2c1c([N+](=O)[O-])cc[n+]2[O-]`, 0.95.
`CCS(=O)(=O)c1cc(OC)c(OC)c(OC)c1`: the logP is 1.05.
The compound `Cc1c[n+]([O-])c2ccccc2c1[N+](=O)[O-]` showed a lipophilicity (logP) of 1.06.
The same measure for `O=NN(CCCl)C(=O)NC1CCSCC1`: 2.07; for `CCOP(=O)(OCC)Oc1ccc(SC)c(Cl)c1`: 2.94; for `CC(C)(C)C(=O)C(C#N)=NNc1cccc(Cl)c1`: 4.62.
`NC(=O)CCCn1nnc2ccccc21` displayed a log partition coefficient (logP) of 0.37.
`CC(=O)Nc1ccc(OC(=O)CBr)cc1` had a logP of 1.08.
Compound `NC(=O)Cn1nnc2ccccc21` returned a logP of -0.1.
`CNC(=O)Oc1ccccc1SC` returned a lipophilicity (logP) of 1.51.
For the compound `Nc1ncc(Cc2cc(Cl)c(Cl)c(Cl)c2)c(N)n1`, the logP is 3.64.
The compound `OCC1OC(Oc2cccc(C(F)(F)F)c2)C(O)C(O)C1O` (centres undefined) yielded a lipophilicity (logP) of 0.49.
`CCCOn1c(=O)[nH]c(CCC)c(Br)c1=O` registered a logP of 1.73.
As to `COc1cc(Cc2cnc(N)nc2N)cc(Cl)c1OC`, the logP was 1.92.
The compound `CCCCCCCC[n+]1ccccc1C.[I-]` came in with a logP of -0.77.
`COc1cc(Cc2cnc(N)nc2N)cc(OC)c1OCc1ccccc1` came in with a logP of 2.46.
The same measure for `O=C1CN=C(c2c(F)cccc2F)c2ccc(Cl)cc2N1`: 2.88; for `CCCOn1c(=O)[nH]c(C)c(SC#N)c1=O`: -0.22; for `O=[N+]([O-])c1cnc(N=C2OCCN2CCO)s1`: 0.43.
Turning to `CCCCCCCCCCOn1c(=O)[nH]c(C)c(Br)c1=O`, the lipophilicity (logP) came out at 4.65.
Under `CC(=O)NC1=C(Nc2ccccc2)C(=O)c2ccccc2C1=O` stands 1.73; under `CCNNC(=O)COc1ccc(Cl)cc1`, 1.73; under `O=[N+]([O-])c1nccn1CCOc1ccccc1`, 1.89.
Turning to `COC(=O)C(C#N)=NNc1cc(Cl)cc(Cl)c1`, the logP came out at 4.5.
With `N#Cc1cccc(N2C(=O)CCC2=O)c1`, the lipophilicity (logP) stood at 0.02.
Under `CC(=O)N(C)SN(C)C(=O)Oc1cccc2c1OC(C)(C)C2` stands 2.7; under `COc1ccc(Cc2cnc(N)nc2N)cc1Cl`, 1.65; under `N#Cc1ccc(C=CNC=O)cc1`, 1.62.
As for `O=c1cc(-c2ccc([N+](=O)[O-])o2)sc(=O)[nH]1`, the logP was found to be 0.55.
As to `CC(C)(C)c1ccc(OC2OC(CO)C(O)C(O)C2O)cc1` (centres undefined), the logP stood at 1.18.
As to `CCOC(=O)c1[nH]cnc1N=NN(C)C`, the log partition coefficient (logP) worked out at 0.44.
The same measure for `S=C1CCCCCCCN1`: 1.44.
Under `COP(=O)(OC)Oc1ccc([N+](=O)[O-])c(Cl)c1` stands 1.83.
For `COCN1C(=O)CN=C(c2ccccc2)c2cc([N+](=O)[O-])ccc21`, the log partition coefficient (logP) came out at 2.05.
As for `ClC1C(Cl)C(Cl)C(Br)C(Cl)C1Cl` (centres undefined), the log partition coefficient (logP) came out at 3.74.
With `O=S1(=O)N=CNc2ccc(Cl)cc21`, the lipophilicity (logP) was 1.07.
`CC(C)C(=O)N(C)SN(C)C(=O)Oc1cccc2c1OC(C)(C)C2` registered a log partition coefficient (logP) of 3.6.
In turn, `[Br-].c1ccc(C[n+]2cccc3ccccc32)cc1` registered a logP of -0.82.
As for `CSc1nnc(CC(C)C)c(=O)n1N`, the logP is 1.39.
`N#Cc1ccc(OC(=O)CNC(=O)c2ccccc2)cc1` yielded a log partition coefficient (logP) of 2.11.
Compound `Cc1ccc(C(=O)c2ccncc2)cc1` yielded a logP of 2.51.
`CCC(=O)N(C)SN(C)C(=O)ON=C(C)SC`: the log partition coefficient (logP) was 1.6.
With `COCC(O)Cn1cc([N+](=O)[O-])nc1C` (centres undefined), the log partition coefficient (logP) is -0.36.
The compound `COc1ccc(N2C(N)=NC(N)=NC2(C)C)cc1` registered a logP of 0.4.
`CCOC(=O)C(=Cc1cccc(Cl)c1)C(=O)OCC`: the lipophilicity (logP) amounted to 3.49.
`Cc1ccc(NC(=O)CN2CCCCC2)cc1` came in with a logP of 2.96.
Under `NNC(=O)c1ccc(N)cc1` stands -0.75.
Turning to `CS(=O)(=O)CCCOc1ccc([N+](=O)[O-])cc1`, the logP worked out at 0.93.
In turn, `CCC(CC)(C(N)=O)c1ccc2c(c1)OCO2` came in with a lipophilicity (logP) of 1.59.
Turning to `CCOC(=O)N(C)SN(C)C(=O)Oc1cccc2c1OC(C)(C)C2`, the lipophilicity (logP) is 3.5.
The same measure for `Nc1ccccc1OC1OC(CO)C(O)C(O)C1O` (centres undefined): -1.23; for `Clc1cc(Cl)c(Cl)c(-c2c(Cl)ccc(Cl)c2Cl)c1`: 7.15; for `C=C(Br)CC1(C(C)CC)C(=O)NC(=O)N(C)C1=O` (centres undefined): 2.43.
Under `N#Cc1ccc2nccnc2c1` stands 1.01.
Under `O=C(O)CCCCCCCN1C(=O)C=CC1=O` stands 1.99; under `CC1CN(C(=O)c2ccccc2)CC(C)N1N=O` (centres undefined), 1.04; under `CNC(=NC#N)NC`, -0.4.
`COc1cc(-n2nc(C)cc2OC)nc(C)n1` yielded a logP of 1.54.
`CN(C)C(=O)Nc1cccc(OCCc2ccccc2)c1`: the logP was determined as 3.39.
The same measure for `CSC(C)=NOC(=O)N(C)SN(C)C(=O)c1ccccc1`: 2.2; for `CSC1=NCCN1c1ncc([N+](=O)[O-])s1`: 1.78; for `Cn1ncc2ccccc2c1=O`: 0.61.
The compound `COc1c(N(C)C)cc(Cc2cnc(N)nc2N)cc1N(C)C` yielded a logP of 2.05.
On to `COc1cc(OC)c(CC(C)N)c(OC)c1` (centres undefined), for which the logP turned out to be 1.57.
